One series deals with HCT116. Description: MTT cytotoxicity assay, HCT116. A general note: Tetrazolium dyes change colour on reduction, which living cells bring about.
In a further series the test system is ID8-vegf. Description: MTT cytotoxicity assay, ID8-vegf. The conditions noted are these: read-out: cytotoxicity IC50 ID8-vegf, Tables 3A/4B/4C.
The nature of another series: in vivo. The conditions noted are these: female, CD1, mouse, ip. As to the method: Pilot safety studies were performed in CD1 mice (n=3/dose group of healthy female mice aged 6-8 weeks) with increasing single doses delivered i.p. and the NOAEL (no-observed-adverse-effect level) was selected for further animal studies. […] Bortezomib was dissolved in a minimal amount of DMSO and further diluted with saline before injection in a dose finding study. […] To measure on-target inhibition of proteasome activity in mice, a leg muscle of CD-1 mice was transduced with the 4UbFL reporter construct. […] Briefly, mouse leg muscle was electroporated with 4UbFL plasmid and basal bioluminescence was measured after 24 hr using IVIS200 imager after injecting luciferin substrate. Mice were randomized (n=5/group) and treated with compounds in PEG400: Cremophor: Tween40 combination or vehicle alone as shown in Table 5 with one dose delivered by intraperitoneal injection. The mice were again imaged at 4 h, 24 h, 48 h post treatment.

In a further series the test system is TC1-Lu. Description: MTT cytotoxicity assay, TC1-Lu. The conditions noted are these: read-out: cytotoxicity IC50 TC1-Lu.
The next series has as its system intracellular GSH. Description: Total GSH assay, ES2 cells. The class given is cell-based, human. The conditions noted are these: ES2, 12 hr. The text has this: FIG. 16B illustrates ES2 cells treated with compounds for 12 hr and the total GSH level assayed.
Recent insights indicate that ER stress and oxidative stress are highly interrelated biological process which regulate a wide range of signaling pathways in cells. […] Oxidative stress is characterized by an imbalance between the production of ROS and the availability of free GSH. Generation of ROS is considered an early event in the process of apoptotic cell death (68). To counteract ROS, cells upregulate antioxidant pathways including intracellular glutathione (GSH).
Luciferase and GSH assays: Sub-confluent cultures of cells were transfected with 4Ub-FL or FL plasmid using Lipofectamine 2000 reagent (Life Technologies). Cells were seeded at 10,000 cells/well in 96-wells plate 48 hr post transfection and incubated with compounds or vehicle (DMSO) at the doses and times indicated. Luciferase activity in cell lysate was determined with a luciferase assay kit (Promega) according to the manufacturer's instructions. Bioluminescence was measured by using a Glomax Multidetection system (Promega). Glutathione was assayed using the Promega GSH assay kit (V6611).

In a further series the test system is PEO4. In words: cells. The note with it: PEO4, read-out: cytotoxicity IC50 PEO4.
A further series relates to CHOP-10 mRNA. Description: RT-qPCR of CHOP-10 mRNA, ES2 cells. It is filed as cell-based, human. The conditions noted are these: ES2, 0.5 μM, 12 hr. As to the method:
FIG. 7A illustrates ES2 cells (250,000 cells/well) treated with compounds at 1 μM for 12 hr and mRNA was isolated. Samples were subjected to RT-qPCR to measure CHOP10 and mRNA levels normalized to GAPDH expression. Significance versus DMSO control (ns=not significant, ** <0.01, *** <0.001, **** <0.0001).
FIG. 16A illustrates ES2 cells treated with compounds (0.5 μM) for 12 hr and CHOP-10 mRNA levels, an ER stress marker, which was analyzed by qRT-PCR.
Q-PCR to measure mRNA levels: Total RNA was isolated from cells using the RNeasy mini kit (Qiagen) according to the manufacturer's instructions. Extracted RNA was normalized for concentration and reverse transcribed using an iScript cDNA synthesis kit (Bio-Rad) according to the manufacturer's instructions. CHOP10 expression levels were measured by Taqman gene expression assays with Taqman gene expression master mix (Applied Biosystems) and run with a standard thermal cycling protocol. Spliced XBP1 mRNA was assayed with SsoFast EvaGreen Supermix (Bio-rad) following the protocol for the iCycler System using as primers: F: 5′-[…]-3′ and R: 5′-[…]-3′. Calculations were done according to the Livak method and normalized to the reference gene GAPDH. Each condition was replicated three times; each sample was run in triplicate.

A further series relates to HS578T. In words: MTT cytotoxicity assay, HS578T.
In the next series the test system is HCT116 ARID1A^-/-. Description: MTT cytotoxicity assay, HCT116 ARID1A knockout. The class given is cell-based, human. The conditions noted are these: for IC50: Homo sapiens, read-out: IC50 HCT116 ARID1A^-/-. The text has this:
Loss of ARID1A function is a common driver of ovarian and some other cancer types, and it confers vulnerability to inhibition of GSH (36).

The test system of another series is KLE. Description: MTT cytotoxicity assay, KLE. The note with it: read-out: cytotoxicity IC50 KLE, Tables 3A/4B/4C.
Another series has as its system SUM149. In words: cells. The note with it: SUM149, read-out: cytotoxicity IC50 SUM149.
The next series has as its system SKOV3. Description: MTT cytotoxicity assay, SKOV3. The conditions noted are these: Homo sapiens.
A further series concerns SiHa. In words: MTT cytotoxicity assay, SiHa.
Another series deals with DLD-Seckle. Description: MTT cytotoxicity assay, DLD-Seckle. The note with it: read-out: cytotoxicity IC50 DLD-Seckle.
The subject of a further series is OVCAR5. In words: MTT cytotoxicity assay, OVCAR5. The note with it: Homo sapiens, read-out: IC50 OVCAR5. The class given is cell-based.
The next series has as its system FaDu. In words: cells. The conditions noted are these: Homo sapiens.
For the next series, the system named is DLD-BRCA2-Ve. Description: MTT cytotoxicity assay, DLD-BRCA2-Ve. The note with it: read-out: cytotoxicity IC50 DLD-BRCA2-Ve.
Another series concerns HCC1806. In words: MTT cytotoxicity assay, HCC1806. The note with it: Homo sapiens, read-out: IC50 HCC1806. The class given is cell-based.
For another series, the system named is TOV21G. Description: MTT cytotoxicity assay, TOV21G.
The next series has as its system MDA-MB-468. In words: cells. The conditions noted are these: Homo sapiens, MDA-MB-468, read-out: cytotoxicity IC50 MDA-MB-468.
[1] abbreviates: read-out: IC50 HCT116, Table 3, MTT, 48 hr, Colon.
Where [2] appears, read: read-out: cytotoxicity IC50 HS578T, Tables 3A/4B/4C, MTT assay.
Setting [3] is: HCT-116, Table 3, MTT, 48 hr, Colon.
[4] abbreviates: SK-OV-3, read-out: cytotoxicity IC50 SKOV3.
[5] abbreviates: read-out: cytotoxicity IC50 HCT116, Tables 3A/4B/4C, MTT assay.
[6] abbreviates: read-out: cytotoxicity IC50 SiHa, Tables 3A/4B/4C, MTT assay.
Where [7] appears, read: read-out: cytotoxicity IC50 FaDu.
Where [8] appears, read: read-out: cytotoxicity IC50 TOV21G, Tables 3A/4B/4C, MTT assay.
[9] abbreviates: read-out: IC50 TOV21G, Table 3, MTT, 48 hr, Ovarian.

SMILES strings stand for the structures. Where two headings read alike, the source gives them in different places.

As usually defined, the NOAEL is the highest tested level that showed no adverse finding.

Experimental for DLD-BRCA2-Ve: (§1) Cell lines and cytotoxicity assays: All cell lines were obtained from the American Type Culture Collection (ATCC) and cultured in the specified medium supplemented with 10% fetal bovine serum, 100 IU/mL penicillin, and 100 μg/mL streptomycin at 37° C. in a humidified 5% CO2/95% air incubator. […] To assess drug cytotoxicity, cells were seeded at 2,500 cells/well (10,000 cells/well for MM lines) in 100 μL medium in 96-well plate and after 24 treated with compounds for 72 h, incubated according to the manufacturer's protocol with the Thiazolyl Blue Tetrazolium Bromide (Sigma, M2128) and A570 measured using a Benchmark Plus microplate spectrophotometer (BIO-RAD). IC50 data was analyzed by Graphpad Prism software. In the chirality studies the cells were treated with compounds for 48 h, and the cells were incubated and measured via the preceeding protocols.
Experimental for DLD-Seckle: as §1
Experimental for HCC1806: (§2) Cell lines and cytotoxicity assays: All cell lines were obtained from the American Type Culture Collection (ATCC) and cultured in the specified medium supplemented with 10% fetal bovine serum, 100 IU/mL penicillin, and 100 μg/mL streptomycin at 37° C. in a humidified 5% CO2/95% air incubator. […] To assess drug cytotoxicity, cells were seeded at 2,500 cells/well (10,000 cells/well for MM lines) in 100 μL medium in 96-well plate and after 24 treated with compounds for 72 h, incubated according to the manufacturer's protocol with the Thiazolyl Blue Tetrazolium Bromide (Sigma, M2128) and A570 measured using a Benchmark Plus microplate spectrophotometer (BIO-RAD). IC50 data was analyzed by Graphpad Prism software.
Experimental for MDA-MB-468: as §1
Experimental for OVCAR5: as §2
Experimental for PEO4: as §1
Experimental for SKOV3: as §2
Experimental for SUM149: as §1
Experimental for TC1-Lu: as §1

Consider `CC(C)C[C@H](NC(=O)[C@H](Cc1ccccc1)NC(=O)c1cnccn1)B(O)O` [Bortezomib, bortezomib, reference compound], for which the IC50 with HCT116 (setting [1]) is 0.0032 µM; in the series on ID8-vegf, 0.0015 µM; in the series with TC1-Lu, 0.0045 µM; with PEO4, 0.031 µM; in the series with HS578T (setting [2]), 0.013 µM; in the series with HCT116 ARID1A^-/- (setting [3]), 0.0028 µM. Further, the IC50 in the series on KLE is 1.19 µM; in the series on SUM149, 0.03 µM; in the series with SKOV3 (setting [4]), 0.0015 µM. Further, in the series “in vivo”, the NOAEL amounted to 0.75 mg/kg. Besides, in the series with intracellular GSH, the “intracellular GSH concentrations” value is listed as “reduced intracellular GSH concentrations”. In the series on CHOP-10 mRNA, the CHOP10 transcript levels entry was “significantly increased CHOP10 transcript levels”.

Turning to `O=C(CCl)N[C@@H](Cc1ccccc1)C(=O)N1C/C(=C\c2ccc([N+](=O)[O-])cc2)C(=O)/C(=C/c2ccc([N+](=O)[O-])cc2)C1` [RA375], the IC50 was determined as 0.089 µM with HCT116 (setting [5]); 0.041 µM with SiHa (read-out: IC50 SiHa); 0.043 µM in the series with DLD-Seckle; 0.012 µM in the series on OVCAR5 (OVCAR-5, 48 h); 0.142 µM in the series with FaDu (48 h, read-out: IC50 FaDu); 0.018 µM in the series on DLD-BRCA2-Ve. For the same compound, the IC50 with HCC1806 (HCC1806, 48 h) came out at 0.017 µM; in the series with HCT116 ARID1A^-/- (HCT-116, 48 h), 0.02 µM; with TOV21G (read-out: IC50 TOV21G), 0.006 µM; in the series with SKOV3 (setting [4]), 0.026 µM. Further, in the series with HCT116 ARID1A^-/-, the “fold less sensitive: parental HCT116 vs isogenic ARID1A knockout” value stood at 4 fold.

`C[C@H]1/C(=C\c2ccc([N+](=O)[O-])cc2)C(=O)/C(=C/c2ccc([N+](=O)[O-])cc2)CN1C(=O)[C@@H](N)Cc1ccccc1`: the IC50 with HCT116 (setting [5]) is 0.08 µM; in the series with SiHa (setting [6]) it was 0.034 µM; in the series on TC1-Lu, 0.114 µM; with DLD-Seckle, 0.055 µM; in the series with PEO4, 0.041 µM; with FaDu (setting [7]), 0.078 µM. Besides, the IC50 in the series on DLD-BRCA2-Ve is 0.055 µM; with KLE, 1.46 µM; with SUM149, 0.02 µM; in the series on MDA-MB-468 it was 0.075 µM; in the series on TOV21G (setting [8]), 0.0036 µM; in the series on SKOV3 (setting [4]), 0.04 µM. Besides, in the series “in vivo”, the NOAEL was 30 mg/kg. In addition, in the series with intracellular GSH, the “intracellular GSH concentrations” value was “reduced intracellular GSH concentrations”. The CHOP10 transcript levels result in the series with CHOP-10 mRNA was “significantly increased CHOP10 transcript levels”.

On to `N[C@@H](Cc1ccccc1)C(=O)N1C/C(=C\c2ccc(Cl)c(Cl)c2)C(=O)/C(=C/c2ccc(Cl)c(Cl)c2)C1` [RA190, reference compound], for which the IC50 with HCT116 (setting [5]) turned out to be 0.239 µM; in the series with ID8-vegf, 0.211 µM; in the series on SiHa (setting [6]), 0.603 µM; with PEO4, 0.168 µM; in the series with OVCAR5 (OVCAR-5, Table 3, MTT, 48 hr, Ovarian), 0.064 µM; with FaDu (setting [7]) it was 0.3 µM. Also, the IC50 with HS578T (setting [2]) came out at 0.078 µM; in the series on HCC1806 (HCC1806, Table 3, MTT, 48 hr, Triple Negative Breast) it was 0.052 µM; in the series on HCT116 ARID1A^-/- (setting [3]), 0.164 µM; in the series with KLE it was 1.59 µM; in the series with SUM149, 0.233 µM; with MDA-MB-468 it was 0.3 µM. Also, the figures for the IC50 in the series on TOV21G (setting [9]), in the series on TOV21G (setting [8]) and in the series on SKOV3 (setting [4]) were 0.083 µM, 0.148 µM and 0.073 µM, respectively.

Turning to `N[C@@H](Cc1ccccc1)C(=O)N1C/C(=C\c2ccc([N+](=O)[O-])cc2)C(=O)/C(=C/c2ccc([N+](=O)[O-])cc2)C1` [RA183, reference compound], the IC50 is 0.193 µM in the series with HCT116 (setting [1]); 0.193 µM in the series on HCT116 (setting [5]); 0.198 µM in the series on ID8-vegf; 0.263 µM in the series with SiHa (read-out: IC50 SiHa, Table 3, MTT, 48 hr, Cervical (HPV +ve)); 0.263 µM with SiHa (setting [6]); 0.056 µM with OVCAR5 (OVCAR-5, 48 h). In addition, the IC50 in the series on FaDu (setting [7]) turned out to be 0.15 µM; with HS578T (read-out: IC50 HS578T, Table 3, MTT, 48 hr, Triple Negative Breast) it was 0.089 µM; in the series on HS578T (setting [2]), 0.089 µM; in the series with HCC1806 (HCC1806, 48 h), 0.044 µM; in the series with HCT116 ARID1A^-/- (HCT-116, 48 h), 0.155 µM; with KLE it was 0.989 µM. Moreover, the IC50 was 0.25 µM with MDA-MB-468; 0.044 µM with TOV21G (setting [9]); 0.053 µM in the series on TOV21G (setting [8]); 0.054 µM in the series with SKOV3 (SK-OV-3, 48 h, read-out: IC50 SKOV3); 0.054 µM with SKOV3 (setting [4]).

Take `CC1/C(=C\c2ccc([N+](=O)[O-])cc2)C(=O)/C(=C/c2ccc([N+](=O)[O-])cc2)CN1C(=O)[C@H](Cc1ccccc1)NC(=O)CCl` (stereo partly drawn) [RA414]: the IC50 with HCT116 (setting [5]) is 0.02 µM; in the series on ID8-vegf, under 0.04 µM; in the series with SiHa (setting [6]), 0.0075 µM; in the series with TC1-Lu, 0.04 µM; in the series on DLD-Seckle it was under 0.04 µM; with PEO4, 0.03 µM. In addition, the IC50 in the series with FaDu (setting [7]) was 0.078 µM; with DLD-BRCA2-Ve, under 0.04 µM; in the series with HS578T (setting [2]), 0.0015 µM; in the series on KLE, 1.12 µM; with SUM149 it was under 0.02 µM; with MDA-MB-468, under 0.02 µM. The results for the IC50 in the series on TOV21G (setting [8]) and with SKOV3 (setting [4]) were 0.0011 µM and under 0.02 µM, respectively. Further, the NOAEL in the series “in vivo” came out at 3 mg/kg. In addition, in the series with intracellular GSH, the “intracellular GSH concentrations” value is recorded as “reduced intracellular GSH concentrations”. Moreover, in the series on CHOP-10 mRNA, the CHOP10 transcript levels result is reported as “significantly increased CHOP10 transcript levels”.
